Data: patent US9624214B2, “Amino-substituted imidazo[1,2-a]pyridinecarboxamides and their use” (BAYER PHARMA AKTIENGESELLSCHAFT, priority 2012, dated 2017)

target: T1, recombinant guanylate cyclase reporter cell line (Rattus norvegicus, UniProt P19686+P20595); assay: B-2. Action on recombinant guanylate cyclase reporter cell line; format: cell-based; settings: MEC = minimal effective concentration; in some cases mean values from individual determinations
T1 construct: expressed in transfected cells
T1 sequence (P20595 1-619): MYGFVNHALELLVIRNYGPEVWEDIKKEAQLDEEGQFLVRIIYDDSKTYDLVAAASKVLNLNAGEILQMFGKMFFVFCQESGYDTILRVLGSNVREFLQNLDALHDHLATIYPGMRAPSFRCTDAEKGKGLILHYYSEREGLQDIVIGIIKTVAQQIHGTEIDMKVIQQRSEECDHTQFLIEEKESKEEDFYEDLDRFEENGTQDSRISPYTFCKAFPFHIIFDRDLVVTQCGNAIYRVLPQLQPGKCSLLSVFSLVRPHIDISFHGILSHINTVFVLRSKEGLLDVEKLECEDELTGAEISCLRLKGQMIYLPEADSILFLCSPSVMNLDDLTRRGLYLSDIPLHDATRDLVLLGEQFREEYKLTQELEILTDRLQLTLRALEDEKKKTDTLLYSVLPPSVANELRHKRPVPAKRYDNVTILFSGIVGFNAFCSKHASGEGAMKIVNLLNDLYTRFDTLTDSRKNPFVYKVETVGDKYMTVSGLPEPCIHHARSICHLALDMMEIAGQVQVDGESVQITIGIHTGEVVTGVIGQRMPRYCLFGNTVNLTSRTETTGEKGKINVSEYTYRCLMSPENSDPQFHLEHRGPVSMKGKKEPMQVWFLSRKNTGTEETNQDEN
T1 sequence (P19686 1-690): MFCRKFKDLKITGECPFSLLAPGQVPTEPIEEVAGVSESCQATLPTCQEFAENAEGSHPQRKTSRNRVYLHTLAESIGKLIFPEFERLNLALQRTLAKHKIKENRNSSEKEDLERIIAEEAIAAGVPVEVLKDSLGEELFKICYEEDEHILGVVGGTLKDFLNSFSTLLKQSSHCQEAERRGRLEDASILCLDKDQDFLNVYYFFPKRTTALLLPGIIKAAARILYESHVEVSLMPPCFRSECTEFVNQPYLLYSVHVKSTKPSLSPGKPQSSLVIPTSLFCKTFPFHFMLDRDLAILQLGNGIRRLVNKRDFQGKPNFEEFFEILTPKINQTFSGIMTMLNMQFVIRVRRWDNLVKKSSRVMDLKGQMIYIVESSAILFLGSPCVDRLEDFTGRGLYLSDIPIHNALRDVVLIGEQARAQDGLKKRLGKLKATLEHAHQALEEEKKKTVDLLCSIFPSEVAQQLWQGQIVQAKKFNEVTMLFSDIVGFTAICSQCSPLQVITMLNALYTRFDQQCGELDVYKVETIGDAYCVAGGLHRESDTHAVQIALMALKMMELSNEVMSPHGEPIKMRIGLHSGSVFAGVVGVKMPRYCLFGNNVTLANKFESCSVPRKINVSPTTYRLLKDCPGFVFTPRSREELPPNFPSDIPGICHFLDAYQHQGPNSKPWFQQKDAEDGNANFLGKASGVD
Outline: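 Each compound is applied to a cell line engineered with a reporter for recombinant guanylate cyclase. The minimal effective concentration is then noted, in part as a mean across separate determinations.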

SMILES	MEC [µM]
Cc1cc(OCc2c(F)cccc2F)c2nc(C)c(C(=O)NCCN(CC(F)F)C3CC3)n2c1 [Example 164, N-{2-[cyclopropyl(2,2-difluoroethyl)amino]ethyl}-8-[(2,6-difluorobenzyl)oxy]-2,6-dimethylimidazo[1,2-a]-pyridine-3-carboxamide]	0.10
Cc1cc(OCc2c(F)cccc2F)c2nc(C)c(C(=O)NCCNC(C)(C)C)n2c1 [Example 255, N-[2-(tert-Butylamino)ethyl]-8-[(2,6-difluorobenzyl)oxy]-2,6-dimethylimidazo[1,2-a]pyridine-3-carboxamide]	0.30
CCCC(C)(N)CNC(=O)c1c(C)nc2c(OC(C)c3c(F)cccc3F)cc(C)cn12 (centres unmarked) [Example 257, N-(2-Amino-2-methylpentyl)-8-[1-(2,6-difluorophenyl)ethoxy]-2,6-dimethylimidazo[1,2-a]-pyridine-3-carboxamide]	1.00
Cc1cc(OCc2c(F)ccc(F)c2F)c2nc(C)c(C(=O)NCC(C)(C)N)n2c1 [Example 276, N-(2-Amino-2-methylpropyl)-2,6-dimethyl-8-[(2,3,6-trifluorobenzyl)oxy]imidazo[1,2-a]pyridine-3-carboxamide]	0.10
COC(=O)[C@@H](N)CCCCNC(=O)c1c(C)nc2c(OCc3c(F)cccc3F)cc(C)cn12 [Example 294, Methyl N^6-({8-[(2,6-difluorobenzyl)oxy]-2,6-dimethylimidazo[1,2-a]pyridin-3-yl}carbonyl)-L-lysinate]	0.065
CCCC(C)(N)CNC(=O)c1c(C(F)(F)F)nc2c(OCc3c(F)cccc3F)cc(C)cn12 (stereo not drawn) [Example 305, ent-N-(2-amino-2-methylpentyl)-8-[(2,6-difluorobenzyl)oxy]-6-methyl-2-(trifluoromethyl)imidazo[1,2-a]pyridine-3-carboxamide]	0.10
CCCC(C)(N)CNC(=O)c1c(C)nc2c(OCc3c(F)cccc3F)cc(Br)cn12 (stereo not drawn) [Example 306, ent-N-(2-amino-2-methylpentyl)-6-bromo-8-[(2,6-difluorobenzyl)oxy]-2-methylimidazo[1,2-a]pyridine-3-carboxamide]	0.10
CCC(C)(CN)NC(=O)c1c(C)nc2c(OCc3c(F)ccc(F)c3F)cc(C)cn12 (stereo not drawn) [Example 315, ent-N-(1-amino-2-methylbutan-2-yl)-2,6-dimethyl-8-[(2,3,6-trifluorobenzyl)oxy]imidazo[1,2-a]pyridine-3-carboxamide]	0.30
CCCC(C)(N)CNC(=O)c1c(C2CC2)nc2c(OCc3c(F)cccc3F)cc(C)cn12 (stereo not drawn) [Example 322, ent-N-(2-amino-2-methylpentyl)-2-cyclopropyl-8-[(2,6-difluorobenzyl)oxy]-6-methylimidazo[1,2-a]pyridine-3-carboxamide]	0.30
CCCC(C)(N)CNC(=O)c1c(C)nc2c(OCc3c(F)cccc3F)cc(CC)cn12 (stereo not drawn) [Example 323, ent-N-(2-amino-2-methylpentyl)-8-[(2,6-difluorobenzyl)oxy]-6-ethyl-2-methylimidazo[1,2-a]pyridine-3-carboxamide]	0.30
Cc1cc(OCc2c(F)cccc2F)c2nc(C)c(C(=O)N[C@@H]3CC[C@](C)(N)C3(C)C)n2c1 [Example 324, N-[(1R,3S)-3-amino-2,2,3-trimethylcyclopentyl]-8-[(2,6-difluorobenzyl)oxy]-2,6-dimethylimidazo[1,2-a]pyridine-3-carboxamide]	1.00

Other lines, results leading:

MEC [µM]	SMILES
0.10	Cc1cc(OCc2c(F)cccc2F)c2nc(C)c(C(=O)NCC3(N)CCC3)n2c1 [Example 165, N-[(1-aminocyclobutyl)methyl]-8-[(2,6-difluorobenzyl)oxy]-2,6-dimethylimidazo[1,2-a]-pyridine-3-carboxamide]
1.00	Cc1cc(OCc2c(F)cccc2F)c2nc(C)c(C(=O)NCCN3C[C@@H](C)O[C@@H](C)C3)n2c1 [Example 167, 8-[(2,6-difluorobenzyl)oxy]-N-{2-[(2R,6S)-2,6-dimethylmorpholin-4-yl]ethyl}-2,6-dimethyl-imidazo[1,2-a]pyridine-3-carboxamide]
1.00	Cc1nc2c(OCc3c(F)cccc3F)cccn2c1C(=O)NCCN1CCN(C2CC2)CC1 [Example 168, N-[2-(4-Cyclopropylpiperazin-1-yl)ethyl]-8-[(2,6-difluorobenzyl)oxy]-2-methylimidazo[1,2-a]-pyridine-3-carboxamide]
1.65	Cc1nc2c(OCc3c(F)cccc3F)cccn2c1C(=O)NCCNCC(F)F [Example 169, 8-[(2,6-difluorobenzyl)oxy]-N-{2-[(2,2-difluoroethyl)amino]ethyl}-2-methylimidazo[1,2-a]pyridine-3-carboxamide]
3.00	Cc1nc2c(OCc3c(F)cccc3F)cccn2c1C(=O)N[C@H](C)CN1CCOCC1 [Example 170, 8-[(2,6-difluorobenzyl)oxy]-2-methyl-N-[(2R)-1-(morpholin-4-yl)propan-2-yl]imidazo[1,2-a]-pyridine-3-carboxamide]
1.00	Cc1nc2c(OCc3c(F)cccc3F)cccn2c1C(=O)N[C@@H](C)CN1CCOCC1 [Example 171, 8-[(2,6-difluorobenzyl)oxy]-2-methyl-N-[(2S)-1-(morpholin-4-yl)propan-2-yl]imidazo[1,2-a]-pyridine-3-carboxamide]
0.30	Cc1cc(OCc2c(F)cccc2F)c2nc(C)c(C(=O)NC[C@@H]3CCCCN3)n2c1 [Example 172, 8-[(2,6-Difluorobenzyl)oxy]-2,6-dimethyl-N-[(2S)-piperidin-2-ylmethyl]imidazo[1,2-a]pyridine-3-carboxamide]
0.30	Cc1cc(OCc2c(F)cccc2F)c2nc(C)c(C(=O)NC[C@H]3CCCCN3)n2c1 [Example 173, 8-[(2,6-Difluorobenzyl)oxy]-2,6-dimethyl-N-[(2R)-piperidin-2-ylmethyl]imidazo[1,2-a]pyridine-3-carboxamide]
1.00	Cc1cc(OCc2c(F)cccc2F)c2nc(C)c(C(=O)NCC3(N)COC3)n2c1 [Example 216, N-[(3-Aminooxetan-3-yl)methyl]-8-[(2,6-difluorobenzyl)oxy]-2,6-dimethylimidazo[1,2-a]pyridine-3-carboxamide]
3.00	Cc1cc(OCc2c(F)cccc2F)c2nc(C)c(C(=O)N[C@@H]3CCCC[C@H]3N)n2c1 [Example 251, ent-N-[(1R,2R)-2-Aminocyclohexyl]-8-[(2,6-difluorobenzyl)oxy]-2,6-dimethylimidazo[1,2-a]-pyridine-3-carboxamide]
0.10	CCC(N)(CC)CNC(=O)c1c(C)nc2c(OCc3c(F)cccc3F)cccn12 [Example 253, N-(2-Amino-2-ethylbutyl)-8-[(2,6-difluorobenzyl)oxy]-2-methylimidazo[1,2-a]pyridine-3-carboxamide]
0.65	Cc1cc(OCc2c(F)cccc2F)c2nc(C)c(C(=O)NCC3(N)CCCCC3)n2c1 [Example 307, N-[(1-aminocyclohexyl)methyl]-8-[(2,6-difluorobenzyl)oxy]-2,6-dimethylimidazo[1,2-a]pyridine-3-carboxamide]
0.30	Cc1cc(OCc2c(F)cccc2F)c2nc(C)c(C(=O)N[C@H]3C[C@H]4CN(C)CCN4C3)n2c1 [Example 314, 8-[(2,6-Difluorobenzyl)oxy]-2,6-dimethyl-N-[(7S,8aS)-2-methyloctahydropyrrolo[1,2-a]pyrazin-7-yl]imidazo[1,2-a]pyridine-3-carboxamide]
0.30	CCCC(C)(N)CNC(=O)c1c(C)nc2c(OCc3c(F)cccc3F)cccn12 (stereo not drawn) [Example 318, ent-N-(2-amino-2-methylpentyl)-8-[(2,6-difluorobenzyl)oxy]-2-methylimidazo[1,2-a]pyridine-3-carboxamide]
0.30	COC(=O)[C@@H](N)CNC(=O)c1c(C)nc2c(OCc3c(F)cccc3F)cc(C)cn12 [Example 319, Methyl 3-[({8-[(2,6-difluorobenzyl)oxy]-2,6-dimethylimidazo[1,2-a]pyridin-3-yl}carbonyl)amino]-L-alaninate]
